According to patent US8071605B2, “Piperidine compounds for use in the treatment of bacterial infections” (AstraZeneca AB, priority 2008, dated 2011):
≈ marks a conversion by molar mass, not a printed value.

Tested on: Streptococcus pneumoniae
Assay: Bacterial susceptibility testing in liquid media (MIC)
Assay type: cell-based
Conditions: against Streptococcus pneumoniae; lowest concentration reducing growth by 80% or more
Source text: Compounds may be tested for antimicrobial activity by susceptibility testing in liquid media. Compounds may be dissolved in dimethylsulfoxide and tested in 10 doubling dilutions in the susceptibility assays. The organisms used in the assay may be grown overnight on suitable agar media and then suspended in a liquid medium appropriate for the growth of the organism. The suspension can be a 0.5 McFarland and a further 1 in 10 dilution can be made into the same liquid medium to prepare the final organism suspension in 100 μL. Plates can be incubated under appropriate conditions at 37° C. for 24 hrs prior to reading. The Minimum Inhibitory Concentration (MIC) may be determined as the lowest drug concentration able to reduce growth by 80% or more.

SMILES | MIC [µg/mL]
COCCn1ccnc1-c1nc(N2CC[C@@H](NC(=O)c3[nH]c(C)c(Cl)c3Cl)[C@@H](C)C2)sc1C(=O)O [Example 23] | 0.78 (≈ 1.44 µM)

Target: S. aureus GyrB ATPase (Staphylococcus aureus, UniProt P0A0K8)
Sequence (P0AES4 whole entry): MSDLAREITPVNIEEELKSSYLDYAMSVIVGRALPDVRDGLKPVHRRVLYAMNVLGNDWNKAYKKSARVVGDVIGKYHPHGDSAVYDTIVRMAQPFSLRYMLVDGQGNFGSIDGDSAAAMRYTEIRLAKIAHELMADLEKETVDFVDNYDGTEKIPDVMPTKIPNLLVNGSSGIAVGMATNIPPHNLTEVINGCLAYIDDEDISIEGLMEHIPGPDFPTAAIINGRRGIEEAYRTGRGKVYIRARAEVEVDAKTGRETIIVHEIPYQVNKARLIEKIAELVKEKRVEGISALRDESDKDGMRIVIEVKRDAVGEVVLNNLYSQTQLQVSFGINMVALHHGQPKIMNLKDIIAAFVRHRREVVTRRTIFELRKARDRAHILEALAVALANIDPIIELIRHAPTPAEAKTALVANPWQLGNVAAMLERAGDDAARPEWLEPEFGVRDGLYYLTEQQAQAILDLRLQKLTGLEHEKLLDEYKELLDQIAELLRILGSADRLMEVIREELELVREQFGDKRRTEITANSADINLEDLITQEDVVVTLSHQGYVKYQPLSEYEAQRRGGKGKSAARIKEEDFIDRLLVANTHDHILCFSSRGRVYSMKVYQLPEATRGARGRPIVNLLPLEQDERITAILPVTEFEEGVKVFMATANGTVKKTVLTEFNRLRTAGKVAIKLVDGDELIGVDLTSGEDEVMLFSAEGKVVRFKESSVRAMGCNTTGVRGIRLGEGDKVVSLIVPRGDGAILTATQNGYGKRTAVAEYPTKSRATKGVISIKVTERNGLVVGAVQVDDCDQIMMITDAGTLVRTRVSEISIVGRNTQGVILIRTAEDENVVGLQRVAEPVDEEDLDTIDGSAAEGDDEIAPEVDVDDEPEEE
Sequence (P0A0K8 whole entry): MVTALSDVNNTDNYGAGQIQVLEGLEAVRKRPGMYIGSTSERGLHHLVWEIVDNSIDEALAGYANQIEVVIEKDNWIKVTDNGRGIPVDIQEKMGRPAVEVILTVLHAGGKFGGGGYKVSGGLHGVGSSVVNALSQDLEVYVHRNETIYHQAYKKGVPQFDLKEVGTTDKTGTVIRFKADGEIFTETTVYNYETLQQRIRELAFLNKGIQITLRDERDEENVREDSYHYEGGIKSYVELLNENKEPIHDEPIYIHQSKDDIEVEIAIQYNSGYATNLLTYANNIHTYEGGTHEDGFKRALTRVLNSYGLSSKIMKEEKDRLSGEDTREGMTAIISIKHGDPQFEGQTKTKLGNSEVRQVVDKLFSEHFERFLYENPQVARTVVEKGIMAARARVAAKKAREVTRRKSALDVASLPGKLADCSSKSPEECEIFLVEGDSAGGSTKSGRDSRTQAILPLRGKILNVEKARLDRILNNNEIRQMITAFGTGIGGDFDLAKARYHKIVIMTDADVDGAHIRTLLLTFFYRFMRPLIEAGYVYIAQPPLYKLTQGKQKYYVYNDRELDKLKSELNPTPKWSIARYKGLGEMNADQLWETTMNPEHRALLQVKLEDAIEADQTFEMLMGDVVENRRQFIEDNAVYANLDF
Assay: S. aureus GyrB ATPase inhibition (ammonium molybdate/malachite green phosphate detection)
Assay type: biochemical
Conditions: compound concentration of 1 μM (unless otherwise noted)
Outline: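 S. aureus GyrB (250 pM) with E. coli GyrA (250 pM), 250 μM ATP and sheared DNA in pH 7.5 Hepes; phosphate release by malachite green/molybdate at 650 nm. Values are percent inhibition at 1 μM compound unless noted, against 2% DMSO and EDTA controls.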

SMILES | inhibition at 1 µM [%]
CCCO[C@H]1CN(c2nc(-c3ncnn3C)c(C(=O)O)s2)CC[C@H]1NC(=O)c1cc(Cl)c(C)[nH]1 [Example 200, 2-[(3S,4R)-4-{[(4-chloro-5-methyl-1H-pyrrol-2-yl)carbonyl]amino}-3-propoxypiperidin-1-yl]-4-(1-methyl-1H-1,2,4-triazol-5-yl)-1,3-thiazole-5-carboxylic acid] | 106
CO[C@H]1CN(c2nc(-c3cnc(N4CCN(CCO)CC4)cn3)c(C(=O)O)s2)CC[C@H]1NC(=O)c1[nH]c(C)c(Cl)c1Cl [Example 141] | 103
C=CCO[C@H]1CN(c2nc(-c3ncccc3F)c(C(=O)O)s2)CC[C@H]1NC(=O)c1[nH]c(C)c(Cl)c1C#N [Example 6] | 99
Cc1[nH]c(C(=O)N[C@@H]2CCN(c3nc(-c4cnc(N5CCN(CCO)CC5)cn4)c(C(=O)O)s3)C[C@@H]2C)c(Cl)c1Cl [Example 182, 2-[(3S,4R)-4-{[(3,4-dichloro-5-methyl-1H-pyrrol-2-yl)carbonyl]amino}-3-methylpiperidin-1-yl]-4-{5-[4-(2-hydroxyethyl)piperazin-1-yl]pyrazin-2-yl}-1,3-thiazole-5-carboxylic acid] | 117
CCO[C@H]1CN(c2nc(-c3ncccc3F)c(C(=O)O)s2)CC[C@H]1NC(=O)c1cc(Cl)c(C)[nH]1 [Example 17] | 106
Cc1[nH]c(C(=O)N[C@@H]2CCN(c3nc(-c4cnc(NCCN(C)C)cn4)c(C(=O)O)s3)C[C@@H]2C)c(Cl)c1Cl [Example 174, 2-[(3S,4R)-4-{[(3,4-dichloro-5-methyl-1H-pyrrol-2-yl)carbonyl]amino}-3-methylpiperidin-1-yl]-4-(5-{[2-(dimethylamino)ethyl]amino}pyrazin-2-yl)-1,3-thiazole-5-carboxylic acid] | 102
CCCO[C@H]1CN(c2nc(-c3ncnn3C)c(C(=O)O)s2)CC[C@H]1NC(=O)c1[nH]c(C)c(Cl)c1C#N [Example 208, 2-[(3S,4R)-4-{[(4-chloro-3-cyano-5-methyl-1H-pyrrol-2-yl)carbonyl]amino}-3-propoxypiperidin-1-yl]-4-(1-methyl-1H-1,2,4-triazol-5-yl)-1,3-thiazole-5-carboxylic acid] | 108
Cc1[nH]c(C(=O)N[C@@H]2CCN(c3nc(-c4cnc(N5CCN(CC(C)C)CC5)cn4)c(C(=O)O)s3)C[C@@H]2C)c(Cl)c1Cl [Example 176, 2-[(3S,4R)-4-{[(3,4-dichloro-5-methyl-1H-pyrrol-2-yl)carbonyl]amino}-3-methylpiperidin-1-yl]-4-{5-[4-(2-methylpropyl)piperazin-1-yl]pyrazin-2-yl}-1,3-thiazole-5-carboxylic acid] | 108
COCCn1ccnc1-c1nc(N2CC[C@@H](NC(=O)c3[nH]c(C)c(Cl)c3Cl)[C@@H](C)C2)sc1C(=O)O [Example 23] | 100
Cc1[nH]c(C(=O)N[C@@H]2CCN(c3nc(-c4cnc(N5CCOCC5)cn4)c(C(=O)O)s3)C[C@@H]2C)c(Cl)c1Cl [Example 166, 2-[(3S,4R)-4-{[(3,4-dichloro-5-methyl-1H-pyrrol-2-yl)carbonyl]amino}-3-methylpiperidin-1-yl]-4-[5-(morpholin-4-yl)pyrazin-2-yl]-1,3-thiazole-5-carboxylic acid] | 110
COCC(COC)Nc1cnc(-c2nc(N3CC[C@@H](NC(=O)c4[nH]c(C)c(Cl)c4Cl)[C@@H](C)C3)sc2C(=O)O)cn1 [Example 172, 2-[(3S,4R)-4-{[(3,4-dichloro-5-methyl-1H-pyrrol-2-yl)carbonyl]amino}-3-methylpiperidin-1-yl]-4-{5-[(1,3-dimethoxypropan-2-yl)amino]pyrazin-2-yl}-1,3-thiazole-5-carboxylic acid] | 109
CCO[C@H]1CN(c2nc(-c3cnc(NCCN(C)C)cn3)c(C(=O)O)s2)CC[C@H]1NC(=O)c1[nH]c(C)c(Cl)c1Cl [Example 94] | 104
Cc1[nH]c(C(=O)N[C@@H]2CCN(c3nc(-c4ncnn4C)c(C(=O)O)s3)C[C@@H]2C)c(C#N)c1Cl [Example 26] | 97
CCO[C@H]1CN(c2nc(-c3cnc(NCCN4CCOCC4)cn3)c(C(=O)O)s2)CC[C@H]1NC(=O)c1[nH]c(C)c(Cl)c1Cl [Example 91] | 105
CCO[C@H]1CN(c2nc(-c3nccn3CCOC)c(C(=O)O)s2)CC[C@H]1NC(=O)c1[nH]c(C)c(Cl)c1Cl [Example 9] | 98
CO[C@H]1CN(c2nc(-c3cnc(N4CCNCC4)cn3)c(C(=O)O)s2)CC[C@H]1NC(=O)c1[nH]c(C)c(Cl)c1Cl [Example 126] | 108
CCN(CC)CCN1CCN(c2cnc(-c3nc(N4CC[C@@H](NC(=O)c5[nH]c(C)c(Cl)c5Cl)[C@@H](C)C4)sc3C(=O)O)cn2)CC1 [Example 180, 2-[(3S,4R)-4-{[(3,4-dichloro-5-methyl-1H-pyrrol-2-yl)carbonyl]amino}-3-methylpiperidin-1-yl]-4-(5-{4-[2-(diethylamino)ethyl]piperazin-1-yl}pyrazin-2-yl)-1,3-thiazole-5-carboxylic acid] | 103

SMILES | inhibition at 1 µM [%]
CO[C@H]1CN(c2nc(-c3cnc(OCCN(C)C)cn3)c(C(=O)O)s2)CC[C@H]1NC(=O)c1[nH]c(C)c(Cl)c1Cl [Example 63] | 104
CCO[C@H]1CN(c2nc(-c3cnc(N4CCCCC4)cn3)c(C(=O)O)s2)CC[C@H]1NC(=O)c1[nH]c(C)c(Cl)c1Cl [Example 86, 2-[(3S,4R)-4-{[(3,4-dichloro-5-methyl-1H-pyrrol-2-yl)carbonyl]amino}-3-ethoxypiperidin-1-yl]-4-[5-(piperidin-1-yl)pyrazin-2-yl]-1,3-thiazole-5-carboxylic acid] | 105
CO[C@H]1CN(c2nc(-c3cnc(OCCN4CCN(C)CC4)cn3)c(C(=O)O)s2)CC[C@H]1NC(=O)c1[nH]c(C)c(Cl)c1Cl [Example 64] | 104
C=CCO[C@H]1CN(c2nc(-c3nccn3CCOC)c(C(=O)O)s2)CC[C@H]1NC(=O)c1[nH]c(C)c(Cl)c1Cl [Example 2] | 103
CO[C@H]1CN(c2nc(-c3cnc(NCC4CN5CCN4CC5)cn3)c(C(=O)O)s2)CC[C@H]1NC(=O)c1[nH]c(C)c(Cl)c1Cl (stereo partly drawn) [Example 195, 4-{5-[(1,4-diazabicyclo[2.2.2]oct-2-ylmethyl)amino]pyrazin-2-yl}-2-[(3S,4R)-4-{[(3,4-dichloro-5-methyl-1H-pyrrol-2-yl)carbonyl]amino}-3-methoxypiperidin-1-yl]-1,3-thiazole-5-carboxylic acid] | 118
CCO[C@H]1CN(c2nc(-c3ncnn3CCOC)c(C(=O)O)s2)CC[C@H]1NC(=O)c1[nH]c(C)c(Cl)c1C#N [Example 13] | 99
Cc1[nH]c(C(=O)N[C@@H]2CCN(c3nc(-c4ncccc4F)c(C(=O)O)s3)C[C@@H]2C)c(C#N)c1Cl [Example 28] | 98
CO[C@H]1CN(c2nc(-c3cnc(N4CCN(CC5CCCCC5)CC4)cn3)c(C(=O)O)s2)CC[C@H]1NC(=O)c1[nH]c(C)c(Cl)c1Cl [Example 136] | 104
Cc1[nH]c(C(=O)N[C@@H]2CCN(c3nc(-c4cnc(N5CCN[C@H](C)C5)cn4)c(C(=O)O)s3)C[C@@H]2C)c(Cl)c1Cl [Example 181, 2-[(3S,4R)-4-{[(3,4-dichloro-5-methyl-1H-pyrrol-2-yl)carbonyl]amino}-3-methylpiperidin-1-yl]-4-{5-[(3R)-3-methylpiperazin-1-yl]pyrazin-2-yl}-1,3-thiazole-5-carboxylic acid] | 101
CO[C@H]1CN(c2nc(-c3cnc(NCCN4CCN(C)CC4)cn3)c(C(=O)O)s2)CC[C@H]1NC(=O)c1[nH]c(C)c(Cl)c1Cl [Example 133] | 112
Cc1[nH]c(C(=O)N[C@@H]2CCN(c3nc(-c4cnc(NCCN5CCNC5=O)cn4)c(C(=O)O)s3)C[C@@H]2C)c(Cl)c1Cl [Example 173, 2-[(3S,4R)-4-{[(3,4-dichloro-5-methyl-1H-pyrrol-2-yl)carbonyl]amino}-3-methylpiperidin-1-yl]-4-(5-{[2-(2-oxoimidazolidin-1-yl)ethyl]amino}pyrazin-2-yl)-1,3-thiazole-5-carboxylic acid] | 104
Cc1[nH]c(C(=O)N[C@@H]2CCN(c3nc(-c4cnc(NCCN5CCCC5=O)cn4)c(C(=O)O)s3)C[C@@H]2C)c(Cl)c1Cl [Example 169, 2-[(3S,4R)-4-{[(3,4-dichloro-5-methyl-1H-pyrrol-2-yl)carbonyl]amino}-3-methylpiperidin-1-yl]-4-(5-{[2-(2-oxopyrrolidin-1-yl)ethyl]amino}pyrazin-2-yl)-1,3-thiazole-5-carboxylic acid] | 102
CCO[C@H]1CN(c2nc(-c3cnc(NC(COC)COC)cn3)c(C(=O)O)s2)CC[C@H]1NC(=O)c1[nH]c(C)c(Cl)c1Cl [Example 92] | 102
Cc1[nH]c(C(=O)N[C@@H]2CCN(c3nc(-c4cnc(N5CCN(CC6CCCCC6)CC5)cn4)c(C(=O)O)s3)C[C@@H]2C)c(Cl)c1Cl [Example 178, 4-{5-[4-(cyclohexylmethyl)piperazin-1-yl]pyrazin-2-yl}-2-[(3S,4R)-4-{[(3,4-dichloro-5-methyl-1H-pyrrol-2-yl)carbonyl]amino}-3-methylpiperidin-1-yl]-1,3-thiazole-5-carboxylic acid] | 102
Cc1[nH]c(C(=O)N[C@@H]2CCN(c3nc(-c4cnccn4)c(C(=O)O)s3)C[C@@H]2C)cc1Cl [Example 21] | 118
Cc1[nH]c(C(=O)N[C@@H]2CCN(c3nc(-c4cnccn4)c(C(=O)O)s3)C[C@@H]2C)c(Cl)c1Cl [Example 25] | 119
